Data on seven compounds can be found in ChEMBL document CHEMBL5150064 (J Med Chem, 2022).

In brackets after ≈: the same amount, converted by molar mass. Activity calls are given as the source filed them. No cut-off for these calls is given here.

Data set [1] can be described thus: Lipophilicity, logD of compound in 1-Octanol/PBS at pH 7.4 by LC-MS/MS method. It counts as physicochemical.
In data set [2] the target is T1, Phosphatidylinositol 4,5-bisphosphate 3-kinase catalytic subunit delta isoform (Homo sapiens) (UniProt O00329).
T1 sequence (whole entry): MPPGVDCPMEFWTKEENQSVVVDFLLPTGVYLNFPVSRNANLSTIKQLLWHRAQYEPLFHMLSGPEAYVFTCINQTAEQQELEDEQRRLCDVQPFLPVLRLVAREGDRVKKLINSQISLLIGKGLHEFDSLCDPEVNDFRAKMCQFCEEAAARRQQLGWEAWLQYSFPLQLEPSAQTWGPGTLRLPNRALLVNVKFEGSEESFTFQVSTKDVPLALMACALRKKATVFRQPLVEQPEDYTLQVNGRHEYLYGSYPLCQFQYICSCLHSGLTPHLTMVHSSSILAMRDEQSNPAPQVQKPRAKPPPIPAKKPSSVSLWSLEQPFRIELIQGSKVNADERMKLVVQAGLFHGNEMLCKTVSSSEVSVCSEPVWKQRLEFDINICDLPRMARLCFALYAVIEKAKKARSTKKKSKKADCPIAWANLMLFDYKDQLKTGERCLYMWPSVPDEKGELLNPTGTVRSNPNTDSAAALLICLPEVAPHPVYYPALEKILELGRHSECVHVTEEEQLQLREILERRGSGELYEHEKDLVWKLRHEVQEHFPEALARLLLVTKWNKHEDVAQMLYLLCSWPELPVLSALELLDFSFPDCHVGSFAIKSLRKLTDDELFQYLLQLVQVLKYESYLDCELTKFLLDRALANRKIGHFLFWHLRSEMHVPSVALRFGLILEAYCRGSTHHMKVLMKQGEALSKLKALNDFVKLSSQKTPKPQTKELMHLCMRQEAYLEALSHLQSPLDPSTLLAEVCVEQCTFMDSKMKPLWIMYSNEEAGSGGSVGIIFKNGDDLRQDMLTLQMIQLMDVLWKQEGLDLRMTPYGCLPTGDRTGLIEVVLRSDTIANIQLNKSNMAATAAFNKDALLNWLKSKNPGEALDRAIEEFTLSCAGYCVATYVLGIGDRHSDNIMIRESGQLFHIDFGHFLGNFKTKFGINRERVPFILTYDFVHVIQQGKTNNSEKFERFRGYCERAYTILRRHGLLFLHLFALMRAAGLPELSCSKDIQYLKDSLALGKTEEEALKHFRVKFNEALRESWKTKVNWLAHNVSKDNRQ
The data set can be described thus: Inhibition of PI3Kdelta in human B-cells assessed as reduction in CD69 expression preincubated for 1 hr followed by IgM stimulation for 18 hrs by flow cytometry analysis. The format is cell-based. The settings on record: B-cell.

Data set [3] is filed under the species Homo sapiens. The data set can be described thus: Selectivity ratio of Ki for PI3Kdelta (unknown origin) to Ki for PI3Kalpha (unknown origin).
Data set [4] can be described thus: Kinetic solubility of the compound at pH 7.4. The format is physicochemical. The settings on record: buffer, read-out: Kinetic_solubility.
Data set [5] can be described thus: Apparent permeability across apical to basolateral side in MDCK cells at 10 uM measured upto 180 mins by LC-MS/MS method. The note with it: dog. The format is ADME, cell-based, Canis lupus familiaris.
In data set [6] the test system is Phosphatidylinositol 4,5-bisphosphate 3-kinase catalytic subunit alpha isoform (Homo sapiens), P42336 [H1047R]. The data set can be described thus: Induction of P110alpha H1047R mutant degradation in human HCC1954 cells at 0.012 to 1 uM after 24 hrs. The settings on record: dose 0.012-1 µM. The format is cell-based.
Data set [7] has the same test system. The data set can be described thus: Inhibition of PI3Kalpha H1047R mutant in human HCC1954 cells assessed as reduction in PRAS40 phosphorylation after 24 hrs by electrochemiluminescent assay.
Data set [8] is described as follows: Clearance in Sprague-Dawley rat plasma at 1 mg/kg, iv measured upto 8 hrs by LC-MS/MS analysis. It counts as ADME, organism-based.
A short description of data set [9]: Oral bioavailability in Sprague-Dawley rat plasma at 5 mg/kg measured upto 8 hrs by LC-MS/MS method. The format is ADME, organism-based.
Data set [10] addresses Phosphatidylinositol 4,5-bisphosphate 3-kinase catalytic subunit alpha isoform (Homo sapiens, UniProt P42336, H1047R).
The target in data set [11] is T2, Phosphatidylinositol 4,5-bisphosphate 3-kinase catalytic subunit alpha isoform (Homo sapiens, UniProt P42336). The data set can be described thus: Inhibition of PI3Kalpha (unknown origin) using PIP2:3PS as substrate in presence of ATP measured after 120 mins by ADP-Glo assay.
For data set [12], the species on record is Homo sapiens. The data set can be described thus: Selectivity ratio of EC50 for PI3Kalpha H1047R mutant in human HCC1954 cells assessed as reduction in PRAS40 phosphorylation to EC50 for wild type PI3Kalpha in human HDQ-P1 cells assessed as reduction in PRAS40 phosphorylation. The format is cell-based.
The target in data set [13] is T2, Phosphatidylinositol 4,5-bisphosphate 3-kinase catalytic subunit alpha isoform. The data set can be described thus: Inhibition of PI3Kalpha in human HDQ-P1 cells assessed as reduction in PRAS40 phosphorylation after 24 hrs by electrochemiluminescent assay. It counts as cell-based.
For data set [14], the species on record is Homo sapiens. Description: Selectivity ratio of IC90 for inhibition of PI3Kdelta in human B-cells assessed as reduction in CD69 expression to EC50 for inhibition of PI3Kalpha H1047R mutant in human HCC1954 cells. The format is cell-based.
A short description of data set [15]: Oral bioavailability in Sprague-Dawley rat plasma at 3 mg/kg measured upto 8 hrs by LC-MS/MS method. The format is ADME, organism-based.

Chain of Phosphatidylinositol 4,5-bisphosphate 3-kinase catalytic subunit alpha isoform (Homo sapiens, UniProt P42336, H1047R) (P42336 whole entry H1047R, canonical isoform): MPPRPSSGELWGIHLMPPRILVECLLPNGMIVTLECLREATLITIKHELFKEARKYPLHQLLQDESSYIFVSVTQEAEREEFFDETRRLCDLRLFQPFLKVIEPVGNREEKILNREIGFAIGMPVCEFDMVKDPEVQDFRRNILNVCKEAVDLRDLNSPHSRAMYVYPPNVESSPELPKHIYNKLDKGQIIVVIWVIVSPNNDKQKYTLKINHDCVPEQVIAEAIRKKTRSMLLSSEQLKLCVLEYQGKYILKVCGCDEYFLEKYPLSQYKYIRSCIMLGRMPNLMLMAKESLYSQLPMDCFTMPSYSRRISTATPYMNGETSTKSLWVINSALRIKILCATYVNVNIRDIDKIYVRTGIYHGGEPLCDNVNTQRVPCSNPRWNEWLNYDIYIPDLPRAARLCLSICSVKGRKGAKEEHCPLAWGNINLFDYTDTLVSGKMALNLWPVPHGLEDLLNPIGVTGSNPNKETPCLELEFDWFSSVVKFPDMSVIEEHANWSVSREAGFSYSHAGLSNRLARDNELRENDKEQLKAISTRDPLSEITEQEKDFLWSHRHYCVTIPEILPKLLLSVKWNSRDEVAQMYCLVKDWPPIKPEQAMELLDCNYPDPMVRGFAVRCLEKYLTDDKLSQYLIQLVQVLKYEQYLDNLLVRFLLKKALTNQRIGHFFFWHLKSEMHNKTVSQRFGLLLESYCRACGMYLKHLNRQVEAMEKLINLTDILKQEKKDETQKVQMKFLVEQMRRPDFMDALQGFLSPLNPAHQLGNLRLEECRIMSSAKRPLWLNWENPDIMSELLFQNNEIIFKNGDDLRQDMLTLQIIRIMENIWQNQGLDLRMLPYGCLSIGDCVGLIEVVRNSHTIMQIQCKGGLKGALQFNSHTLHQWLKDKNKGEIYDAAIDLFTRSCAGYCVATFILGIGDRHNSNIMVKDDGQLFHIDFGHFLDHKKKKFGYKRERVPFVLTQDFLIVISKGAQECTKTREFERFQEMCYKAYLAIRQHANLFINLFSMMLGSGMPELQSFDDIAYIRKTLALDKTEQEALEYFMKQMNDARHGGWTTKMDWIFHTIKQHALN
Chain of Phosphatidylinositol 4,5-bisphosphate 3-kinase catalytic subunit alpha isoform (Homo sapiens), P42336 [H1047R] (P42336 whole entry H1047R, canonical isoform): as above
T2 sequence (P42336 whole entry, canonical isoform): as the sequence (P42336 whole entry H1047R, canonical isoform) above, with R1047H counted along it

`CC(C)n1ncnc1-c1cn2c(n1)-c1ccc(O[C@@H](C)C(N)=O)cc1OCC2` had a logD in data set [1] of 1.9. The IC90 in [2] is 147 nM.
Take `NC(=O)[C@@H]1CCCN1c1ccc2c(c1)OCCn1cc(N3C(=O)OC[C@H]3CF)nc1-2`: in the data set listed under Homo sapiens [3], the Ratio Ki amounted to 46. Besides, the logD in data set [1] was 0.8. The solubility kinetic in data set [4] stood at 159 µM (≈ 66.1 µg/mL). Moreover, in [5], the Papp A→B at 3 h, 10 µM came out at 2.6 ×10⁻⁶ cm/s. Besides, in data set [6], the result was Active. Also, the inhibition entry in data set [7] is “Active”.
In the case of `NC(=O)[C@@H](Nc1ccc2c(c1)OCCn1cc(N3C(=O)OC[C@H]3C(F)F)nc1-2)C1CC1`, in [1], the logD was 1.2. In addition, the apparent permeability from apical to basolateral (Papp A→B) at 3 h, 10 µM in [5] was found to be 3.2 ×10⁻⁶ cm/s. The compound also displayed a clearance in data set [8] of 67 mL/min/kg. Moreover, the bioavailability in data set [9] was found to be 41%. The outcome in data set [6] was Active. Further, in data set [2], the IC90 turned out to be 307 nM. Further, the EC50 in data set [10] was 28 nM.
For the compound `Cc1nc(-c2cn3c(n2)-c2ccc(-c4cnn(C(C)(C)C(N)=O)c4)cc2OCC3)n(C(C)C)n1` [TASELISIB], the logD in data set [1] worked out at 2.3. Also, the IC90 in data set [2] is 3.1 nM.
As to `NC(=O)[C@@H]1CCCN1c1ccc2c(c1)OCCn1cc(N3CC[C@H](O)C3=O)nc1-2`, the Ki in data set [11] turned out to be 0.355 nM. The Ratio Ki in the data set filed under Homo sapiens [3] was determined as 13. Moreover, in the data set listed under Homo sapiens [12], the Ratio EC50 was 5.2. In data set [1], this compound yielded a logD of 0.4. In addition, the solubility kinetic in [4] turned out to be 143 µM (≈ 56.8 µg/mL). Also, the Papp A→B at 3 h, 10 µM in [5] was found to be 0.3 ×10⁻⁶ cm/s. The same compound returned a clearance in [8] of 27 mL/min/kg. The bioavailability in data set [9] worked out at 9%. Moreover, the results for the EC50 in data set [13] and in data set [10] were 327 nM and 63 nM, respectively.
Turning to `NC(=O)[C@@H]1CCCN1c1ccc2c(c1)OCCn1cc(N3C(=O)OC[C@H]3C(F)F)nc1-2`, the Ratio Ki in the data set filed under Homo sapiens [3] was 34. In data set [1], this compound displayed a logD of 1.3. For the same compound, the solubility kinetic in data set [4] amounted to 11 µM (≈ 4.77 µg/mL). Besides, the Papp A→B at 3 h, 10 µM in data set [5] came to 4.3 ×10⁻⁶ cm/s. The compound further had a clearance in data set [8] of 41 mL/min/kg. The compound further came in with a bioavailability in data set [9] of 35%. For the same compound, the outcome in [6] was Active. In data set [2], the IC90 was determined as 103 nM. Moreover, in the data set listed under Homo sapiens [14], the Selectivity ratio is 6.4. Besides, the inhibition result in data set [7] was “Active”.
`NC(=O)[C@@H](Nc1ccc2c(c1)OCCn1cc(N3C(=O)OC[C@H]3C(F)(F)F)nc1-2)C1CC1`: the Ki in data set [11] worked out at 0.1 nM. The Ratio Ki in the data set filed under Homo sapiens [3] turned out to be 285. Also, in the data set filed under Homo sapiens [12], the Ratio EC50 is 1.1. The compound also yielded a logD in [1] of 1.2. The Papp A→B at 3 h, 10 µM in data set [5] was 1.1 ×10⁻⁶ cm/s. In data set [8], this compound displayed a clearance of 94 mL/min/kg. The bioavailability in data set [15] came to 98%. In [10], this compound came in with an EC50 of 52 nM.
